Like-named read-outs stand apart in the source and are kept apart here.
Legend:
[1] = cited from earlier work
[2] = set-up: method as in earlier work; conditions: cited from earlier work
[3] = Antibiotic concentrations in porcine oral fluid after intramuscular application (UHPLC-MS/MS); format: in vivo; conditions: pigs, i.m.; for concentration in oral fluid at withdrawal period: at the end of the withdrawal period for tissues of each drug (Table 3); for distribution to oral fluid: conclusion in words
Experimental: All animals were born in the sow farm (8000 DanBred sows) located in Northern Poland, after crossing ♀(♂Landrace × ♀Yorskshire) × ♂Duroc. Piglets were weaned after 4 weeks of lactation with an average weight of 6 kg and then moved to the weaner stable (23,000 weaners). After the next 7 weeks, animals were transported to the 9000-places fattening farm with an average body weight of 28 kg, where the trial was performed. All farms in the aforementioned three-phase model used weekly batches and an all-in all-out system. Specialist veterinary and production management care were provided in each location.
For the purpose of the study, 240 immunologically castrated boars were divided into 8 groups, 30 animals in each pen. For the control group, 30 pigs were used in separate pens. Their initial body weight was between 40 and 60 kg. Pigs were housed at 20–25 °C. Fatteners were fed ad libitum with antimicrobial-free water and feed provided by feeders throughout the study. Before the experiment, water and feed were checked for antimicrobials, and no antimicrobial treatments were administered to these pigs before. All animals in one pen were treated due to the same health issue using disposable needles and the same drug and dosage. Pens were separated from each other with concrete walls. The drugs and dosage administered to each experimental group with an indication of withdrawal period for tissues are listed in Table 3. The oral fluid samples were collected using three cotton ropes (70 cm length with 1 cm diameter) in each pen suspended separately for 25 min on the front wall of the pen with bottoms at the pigs’ shoulder height, away from water and feed.
The research material was one pooled sample of oral fluid from 10 pigs, in triplicate, per pen. Ropes were removed immediately after collection. The first oral fluid sample was collected 24 h after the first injection. The collection of each subsequent sample took place at the same time (11:30 A.M.) for 35 consecutive days. Additionally, oral fluid samples were collected from pigs not treated with any antibiotics. Oral fluid from each pen was pooled into one 50-mL Falcon plastic tube and centrifuged at 9447× rcf for 15 min. Centrifuged material was transferred to a 15 mL plastic tube and frozen at −20 °C until analysis.
Before the analysis, the oral fluid samples were centrifuged at 9447× rcf. Next, an aliquot (1 mL) of oral fluid was placed into a 2 mL polypropylene centrifuge tube, and the 30 µL of the internal standard at the concentration of 2 µg/mL was added. For the extraction of analysed antibiotics, 600 µL of 0.5% formic acid was added, vortexed for 30 s and centrifuged for 10 min at 9447× rcf. Then, the supernatant was filtered through a […] PVDF filter into an amber glass vial before chromatographic analysis.
The mass spectrometry detection was operated in the positive ESI mode with multiple reaction monitoring (MRM).

[4] = set-up: method as in PMID 14651045, PMID 14651045; conditions: cited from earlier work
[5] = male, (Landrace × Yorkshire) × Duroc crossbred (DanBred sows), pig, intramuscular, oral fluid, time 1 d (24 h after first injection), treatment period, read-out: Avarage Concentrations in oral fluid
[6] = male, (Landrace × Yorkshire) × Duroc crossbred (DanBred sows), pig, intramuscular, oral fluid, treatment period, read-out: Avarage Concentrations in oral fluid
[7] = male, (Landrace × Yorkshire) × Duroc crossbred (DanBred sows), pig, intramuscular, oral fluid, time 4 d, posttreatment, read-out: Avarage Concentrations in oral fluid
[8] = male, (Landrace × Yorkshire) × Duroc crossbred (DanBred sows), pig, intramuscular, oral fluid, posttreatment, read-out: Avarage Concentrations in oral fluid
[9] = oral fluid, time 30 d, posttreatment

concentration at 1 d [3, 5] | concentration at 2 d [3, 6] | concentration at 3 d [3, 6] | concentration at 4 d [3, 7] | concentration at 5 d [3, 8] | concentration at 6 d [3, 8] | concentration at 7 d [3, 8] | concentration at 8 d [3, 8] | concentration at 9 d [3, 8] | concentration at 10 d [3, 8] | concentration at 11 d [3, 8] | concentration at 12 d [3, 8] | concentration at 13 d [3, 8] | concentration at 14 d [3, 8] | concentration at 15 d [3, 8] | concentration at 16 d [3, 8] | concentration at 17 d [3, 8] | concentration at 18 d [3, 8] | concentration at 19 d [3, 8] | Compound | pKa [1] | further results
10500 ng/mL | 2960 ± 446 ng/mL | 4250 ± 559 ng/mL | 1550 ng/mL | 1670 ± 199 ng/mL | 1790 ± 203 ng/mL | 1480 ± 186 ng/mL | 437 ± 101 ng/mL | 457 ± 96 ng/mL | 420 ± 83 ng/mL | 194 ± 55 ng/mL | 257 ± 76 ng/mL | 131 ± 41 ng/mL | 125 ± 33 ng/mL | 277 ± 61 ng/mL | 337 ± 69 ng/mL | 128 ± 28 ng/mL | 302 ± 51 ng/mL | 279 ± 44 ng/mL | CCC[C@@H]1C[C@@H](C(=O)N[C@@H]([C@H]2O[C@H](SC)[C@H](O)[C@@H](O)[C@H]2O)[C@@H](C)O)N(C)C1 [LIN, lincomycin] | about 7.6 | apparent volume of distribution [2]: > 1 L/kg; concentration at 1 d ([3]; male, (Landrace × Yorkshire) × Duroc crossbred (DanBred sows), pig, intramuscular, oral fluid, first day of medication (abstract), read-out: concentration in oral fluid on the first day of medication): 10500 ng/g; concentration at 20 d [3, 8]: 376 ± 52 ng/mL; concentration at 21 d [3, 8]: 252 ± 39 ng/mL; concentration at 22 d [3, 8]: 142 ± 24 ng/mL; concentration at 23 d [3, 8]: 298 ± 33 ng/mL; concentration at 24 d [3, 8]: 326 ± 47 ng/mL; concentration at 25 d [3, 8]: 180 ± 44 ng/mL; concentration at 26 d [3, 8]: 160 ± 36 ng/mL; concentration at 27 d [3, 8]: 205 ± 43 ng/mL; concentration at 28 d ([3]; male, (Landrace × Yorkshire) × Duroc crossbred (DanBred sows), pig, intramuscular, oral fluid, time 28 d, posttreatment, read-out: Avarage Concentrations in oral fluid): 103 ± 26 ng/mL; concentration at 29 d ([3]; male, (Landrace × Yorkshire) × Duroc crossbred (DanBred sows), pig, intramuscular, oral fluid, time 29 d, posttreatment, read-out: Avarage Concentrations in oral fluid): 85.6 ± 16 ng/mL; concentration at 30 d ([3]; male, (Landrace × Yorkshire) × Duroc crossbred (DanBred sows), pig, intramuscular, oral fluid, time 30 d, posttreatment, read-out: Avarage Concentrations in oral fluid): 58.1 ng/mL; concentration in oral fluid at withdrawal period ([3]; oral fluid): 437 ng/mL; Avarage Concentrations in oral fluid ([3]; oral fluid, time 1 d (24 h after first injection), treatment period): 10,500 ± 1889 µg/L; Avarage Concentrations in oral fluid ([3]; oral fluid, time 4 d, posttreatment): 1550 ± 211 µg/L; Avarage Concentrations in oral fluid [3, 9]: 58.1 ± 12 µg/L; distribution to oral fluid [3]: high distribution
396 ± 68 ng/mL | 958 ± 166 ng/mL | 832 ± 142 ng/mL | 654 ± 111 ng/mL | 538 ± 96 ng/mL | 475 ± 89 ng/mL | 175 ± 54 ng/mL | 118 ± 41 ng/mL | 158 ± 62 ng/mL | 49.3 ± 13 ng/mL | 54.4 ± 16 ng/mL | 140 ± 36 ng/mL | 32.3 ± 11 ng/mL | 30.6 ± 8.4 ng/mL | 19.2 ± 5.2 ng/mL | 52.8 ± 33 ng/mL | 31.9 ± 10 ng/mL | 13.9 ± 3.6 ng/mL | 16.1 ± 4.6 ng/mL | CC[C@H]1OC(=O)C[C@@H](O)[C@H](C)[C@@H](O[C@@H]2O[C@H](C)[C@@H](O[C@H]3C[C@@](C)(O)[C@@H](O)[C@H](C)O3)[C@H](N(C)C)[C@H]2O)[C@@H](CC=O)C[C@@H](C)C(=O)/C=C/C(C)=C/[C@@H]1CO[C@@H]1O[C@H](C)[C@@H](O)[C@@H](OC)[C@H]1OC [TYL, tylosin] | 7.1 | binding degree to plasma proteins [4]: < 50%; concentration at 1 d ([3]; male, (Landrace × Yorkshire) × Duroc crossbred (DanBred sows), pig, intramuscular, 5 mg/kg, oral fluid, time 1 d (24 h after first injection), treatment period, read-out: Avarage Concentrations in oral fluid): 396 ng/mL; concentration at 20 d [3, 8]: 25.4 ± 7.7 ng/mL; concentration at 21 d [3, 8]: 9.2 ± 2.1 ng/mL; concentration at 22 d [3, 8]: 5.5 ± 1.1 ng/mL; concentration at 23 d [3, 8]: 5.4 ± 0.8 ng/mL; concentration at 24 d [3, 8]: 6.6 ± 0.9 ng/mL; concentration at 25 d [3, 8]: 5 ± 1.3 ng/mL; concentration at 26 d [3, 8]: 3 ± 0.5 ng/mL; concentration at 27 d [3, 8]: 6.8 ± 1.7 ng/mL; concentration in oral fluid at withdrawal period ([3]; oral fluid): 6.6 ng/mL; day of peak concentration in oral fluid ([3]; oral fluid, day of drug administration): second day; time for which the analyte was present / quantified in oral fluid ([3]; oral fluid, sampling for 30 days): 27 days; Avarage Concentrations in oral fluid ([3]; oral fluid, time 28 d, posttreatment): <LOQ; Avarage Concentrations in oral fluid ([3]; oral fluid, time 29 d, posttreatment): <LOQ; Avarage Concentrations in oral fluid [3, 9]: <LOQ; distribution to oral fluid [3]: high distribution

Reference: publication PMC8879095, “UHPLC-MS/MS Analysis of Antibiotics Transfer and Concentrations in Porcine Oral Fluid after Intramuscular Application” (Pharmaceuticals, 2022)
